Laboratory results: PubChem BioAssay (NCI)
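Values below derive from 48-hour exposures of cells grown in 96-well plates, with endpoints linearly interpolated between the two concentrations bracketing the appropriate inhibition level. At the GI50, growth is halved. TGI is the concentration that stops growth completely.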

How the values were obtained:
Experiment in all cases: NCI tumour cell line growth inhibition, 48 h
SN12C renal = tested on: SN12C renal
NCI-H23 lung = tested on: NCI-H23 lung
OVCAR-3 ovarian = tested on: OVCAR-3 ovarian
SF-539 CNS = tested on: SF-539 CNS
OVCAR-5 ovarian = tested on: OVCAR-5 ovarian
SF-295 CNS = tested on: SF-295 CNS
DU-145 prostate = tested on: DU-145 prostate
HCT-116 colon = tested on: HCT-116 colon
UACC-62 melanoma = tested on: UACC-62 melanoma
PC-3 prostate = tested on: PC-3 prostate
KM12 colon = tested on: KM12 colon
SNB-19 CNS = tested on: SNB-19 CNS
OVCAR-4 ovarian = tested on: OVCAR-4 ovarian
CAKI-1 renal = tested on: CAKI-1 renal
RXF 393 renal = tested on: RXF 393 renal
CCRF-CEM leukemia = tested on: CCRF-CEM leukemia
NCI-H522 lung = tested on: NCI-H522 lung

Structure (SMILES)	TGI (SN12C renal)	TGI (NCI-H23 lung)	TGI (OVCAR-3 ovarian)	TGI (SF-539 CNS)	TGI (OVCAR-5 ovarian)	TGI (SF-295 CNS)	TGI (DU-145 prostate)	TGI (HCT-116 colon)	TGI (UACC-62 melanoma)	TGI (PC-3 prostate)	TGI (KM12 colon)	TGI (SNB-19 CNS)	TGI (OVCAR-4 ovarian)	TGI (CAKI-1 renal)	TGI (RXF 393 renal)	TGI (CCRF-CEM leukemia)	TGI (NCI-H522 lung)	GI50 (CCRF-CEM leukemia)
Cn1c2ccccc2c(=O)c2cccc(C(=O)NC(CCCN=C(N)N)C(=O)O)c21 (stereo not given)	> 100 µM	> 100 µM	> 100 µM	> 100 µM	> 100 µM	> 100 µM	> 100 µM	> 100 µM	> 100 µM	> 100 µM	> 100 µM	> 100 µM	> 100 µM					
CSc1sc2ccccc2[s+]1	> 100 µM			> 100 µM	> 100 µM	> 100 µM		> 100 µM	> 100 µM		> 100 µM	> 100 µM	> 100 µM	> 100 µM	> 100 µM	> 100 µM	> 100 µM	
O=C(N/N=C/c1cc(Br)cc(Br)c1[O-])c1ccccc1O.O=C(N/N=C/c1cc(Br)cc(Br)c1[O-])c1ccccc1O.[Cu+2]		0.484 µM	0.702 µM	0.926 µM	2.03 µM	1.24 µM			0.551 µM		1.98 µM	2.28 µM	0.56 µM		0.926 µM	4.54 µM	0.59 µM	0.446 µM
COc1cc2c3c(c1OC)C1(C=CC(=O)C=C1)C[C@H]3N(C)CC2	> 100 µM	> 100 µM	> 100 µM	> 100 µM	> 100 µM	> 100 µM		> 100 µM	> 100 µM		> 100 µM	> 100 µM			> 100 µM		> 100 µM	
O=c1c(C(c2ccc(Cl)cc2)c2c(O)c3ccccc3n(-c3ccccc3)c2=O)c(O)c2ccccc2n1-c1ccccc1	> 100 µM	> 100 µM	> 100 µM	> 100 µM	> 100 µM	> 100 µM		> 100 µM	> 100 µM		> 100 µM	> 100 µM	> 100 µM	> 100 µM	> 100 µM	> 100 µM	> 100 µM	
CC(C)CC(O)P(=O)(O)O (stereo not given)	> 100 µM		> 100 µM		> 100 µM	> 100 µM	> 100 µM	> 100 µM	> 100 µM	> 100 µM	> 100 µM	> 100 µM	> 100 µM	> 100 µM	> 100 µM			
Cc1ccc(O)c(-c2cscn2)c1	> 100 µM	> 100 µM	> 100 µM	> 100 µM	> 100 µM	> 100 µM		> 100 µM	> 100 µM	> 100 µM		> 100 µM	> 100 µM	> 100 µM		> 100 µM		
O=C1/C(=C/c2ccc(Cl)cc2)CSc2ccccc21	43.4 µM	45.1 µM	49.1 µM	35.7 µM			> 100 µM		14.6 µM	44.5 µM	> 100 µM	39.4 µM	71.4 µM	46.7 µM	36.3 µM	9.26 µM		
O=NN(CCCl)C(=O)NC1CCC(O)CC1 (stereo not given)	> 100 µM	> 100 µM	> 89.8 µM	> 61 µM	> 100 µM	> 80.2 µM		> 94.4 µM	40.4 µM		> 100 µM	> 100 µM	> 100 µM	> 89.6 µM	> 71.5 µM	52.2 µM	55.4 µM	
O=C1c2ccccc2C2(c3ccc(Cl)cc3)N[C@H]3CCCC[C@@H]3N12 (stereo not given in full)	> 100 µM	> 100 µM	> 100 µM			> 100 µM	> 100 µM	> 100 µM	> 100 µM	> 100 µM	> 100 µM	> 100 µM	> 100 µM	> 100 µM	> 100 µM	> 100 µM		
CN1C2CCC1CC(C)(O)C2 (stereo not given)	> 100 µM	> 100 µM	> 100 µM			> 100 µM	> 100 µM	> 100 µM		> 100 µM	> 100 µM	> 100 µM			> 100 µM	> 100 µM		
CCCCN=C(c1ccccc1)N1CCOCC1	> 100 µM	> 100 µM	> 100 µM	> 100 µM	> 100 µM	> 100 µM	> 100 µM	> 100 µM	> 100 µM	> 100 µM	> 100 µM	> 100 µM		> 100 µM	> 100 µM	> 100 µM		
COC(=O)C1CCCN1C(=O)C(Cc1cn(S(=O)(=O)c2ccc(C)cc2)cn1)NC(=O)OC(C)(C)C (stereo not given)	> 100 µM	> 100 µM			> 100 µM			> 100 µM	> 100 µM	> 100 µM	> 100 µM	> 100 µM			> 100 µM	> 100 µM		
COc1cccc(/C=N/n2c(C)n[nH]c2=O)c1	> 100 µM	> 100 µM	> 100 µM	> 100 µM	> 100 µM	> 100 µM		> 100 µM	> 100 µM	> 100 µM	> 100 µM	> 100 µM	> 100 µM	> 100 µM	> 100 µM	> 100 µM		
